biological target: T1, human liver Cathepsin D (Homo sapiens, UniProt P07339); assay: Human Cathepsin D FRET Assay; format: biochemical; conditions: Ki interpolated from IC50 using Km 4 uM and substrate 2.5 uM; read-out: hCathD Ki
T1 construct: Purified (>95%) human liver Cathepsin D; purchased Athens Research & Technology 16-12-030104; host or cells: human liver (tissue-derived)
Description: This assay can be run in either continuous or endpoint format. […] Substrate and enzyme are commercially available.
The assay is run in a 30 ul final volume using a 384 well Nunc black plate. 8 concentrations of compound are pre-incubated with enzyme for 30 mins at 37 C followed by addition of substrate with continued incubation at 37 C for 45 mins. The rate of increase in fluorescence is linear for over 1 h and is measured at the end of the incubation period using a Molecular Devices FLEX station plate reader.
Compound is diluted to 3× final concentration in assay buffer containing 3% DMSO. […] 10 ul of substrate is added to each well mixed and spun briefly to initiate the reaction.

T1 sequence (P07339 65-161 limits assumed): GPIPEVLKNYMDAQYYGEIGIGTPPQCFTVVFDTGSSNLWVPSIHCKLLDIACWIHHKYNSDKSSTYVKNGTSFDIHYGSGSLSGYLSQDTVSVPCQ
T1 sequence (P07339 169-412 limits assumed): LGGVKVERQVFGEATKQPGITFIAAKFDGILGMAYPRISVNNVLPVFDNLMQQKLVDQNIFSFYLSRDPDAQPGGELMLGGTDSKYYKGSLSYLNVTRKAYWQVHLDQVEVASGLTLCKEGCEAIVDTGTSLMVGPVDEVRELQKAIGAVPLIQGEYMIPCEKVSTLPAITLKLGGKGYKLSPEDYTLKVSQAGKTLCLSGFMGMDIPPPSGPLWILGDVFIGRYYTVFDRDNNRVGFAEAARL

Ki [nM] | Structure (SMILES)
0.45 | N=C1N[C@](CCC2CCCCC2)(CC2CCCCC2)C(=O)N1Cc1ccc(Cl)cc1Cl [drawing 4522]

same assay, conditions: compounds listed as exhibiting hCathD Ki under 75 nM; Ki interpolated from IC50, Km 4 uM, substrate 2.5 uM

Structure (SMILES) | Ki [nM]
CCCCOC1CCCC(C[C@@]2(CCC3CCCCC3)NC(=N)N(C)C2=O)C1 (stereo partly drawn) | < 75
C[C@@H](C1CCCCC1)N1C(=N)N[C@](CCC2CCCCC2)(CC2CCCCC2)C1=O | < 75
CCCCNC(=O)NCc1ccc(CN2C(=N)NC(CCC3CCCCC3)(CC3CCCCC3)C2=O)cc1 (stereo not drawn) | < 75
N=C1N[C@](CCC2CCCCC2)(CC2CCCCC2)C(=O)N1CCC(c1ccccc1)c1ccccc1 | < 75
CCCCNC(=O)NCc1ccc(CN2C(=N)NC(CCC3CCCCC3)(CC3CCCCC3)CC2=O)cc1 (stereo not drawn) | < 75
N=C1NC(CCC2CCCCC2)(CC2CCCCC2)C(=O)N1CC1CCN(C(=O)COc2ccccc2)CC1 (stereo not drawn) | < 75
N=C1NC(CCC2CCCCC2)(c2cccc(Br)c2)C(=O)N1CC1CCN(C(=O)COc2ccccc2)CC1 (stereo not drawn) | < 75
N=C1N[C@](CCC2CCCCC2)(CC2CCCCC2)C(=O)N1Cc1ccc(F)cc1 | < 75
N=C1N[C@](CCC2CCCCC2)(CC2CCCCC2)C(=O)N1Cc1ccc(Cl)cc1Cl [drawing 4505] | < 75

Second part, the compound after the results:

Ki [nM] | Structure (SMILES)
< 75 | N=C1N[C@](CCC2CCCCC2)(CC2CCCCC2)C(=O)N1Cc1cccc([N+](=O)[O-])c1
< 75 | CC(C)C[C@H](CO)N1C(=N)N[C@](CCC2CCCCC2)(CC2CCCCC2)C1=O
< 75 | CCC[C@H]1CN(Cc2ccc(CC3C(=N)N[C@](CCC4CCCCC4)(CC4CCCCC4)C3=O)cc2)C(=O)N1 (stereo partly drawn)
< 75 | N=C1N[C@](CCC2CCCCC2)(CC2CCCCC2)C(=O)N1Cc1ccc([N+](=O)[O-])cc1
< 75 | Cc1ccccc1CN1C(=N)N[C@](CCC2CCCCC2)(CC2CCCCC2)C1=O
< 75 | N=C1N[C@](CCC2CCCCC2)(CC2CCCCC2)C(=O)N1Cc1ccc(F)cc1Cl
< 75 | CCCCc1cccc(C2(CCCC)NC(=N)N(CC3CCN(C(=O)COc4ccccc4)CC3)C2=O)c1 (stereo not drawn)
< 75 | CCCCC1(c2cccc(Br)c2)NC(=N)N(CC2CCN(C(=O)COc3ccccc3)CC2)C1=O (stereo not drawn)

biological target: T2, Mature human Renin (Homo sapiens, UniProt P00797); assay: Human Mature Renin Enzyme Assay (FRET); format: biochemical; conditions: 100 μM compound; percent decrease in renin induced fluorescence after 40 min at 30 degrees celsius
T2 construct: The prodomain of the recombinant human renin-V5-6His was removed by limited proteolysis using immobilized TPCK-trypsin to give mature-human renin; V5 (C); 6His (C); made in house
T2 sequence (P00797 67-406): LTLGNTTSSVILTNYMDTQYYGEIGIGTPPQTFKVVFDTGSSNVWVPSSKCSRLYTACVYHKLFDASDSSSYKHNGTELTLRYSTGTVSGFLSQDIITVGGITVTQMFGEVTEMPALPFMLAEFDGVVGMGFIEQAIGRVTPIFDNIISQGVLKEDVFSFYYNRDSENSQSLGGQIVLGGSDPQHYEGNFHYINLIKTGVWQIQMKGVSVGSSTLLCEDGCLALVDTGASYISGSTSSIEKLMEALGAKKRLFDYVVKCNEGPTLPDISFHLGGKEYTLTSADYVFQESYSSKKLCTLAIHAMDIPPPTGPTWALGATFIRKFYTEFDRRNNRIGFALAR
From the text: Human Renin was cloned from a human kidney cDNA library and C-terminally epitope-tagged with the V5-6His sequence into pCDNA3.1. pCNDA3.1-Renin-V5-6His was stably expressed in HEK293 cells and purified to >80% using standard Ni-Affinity chromatography. The prodomain of the recombinant human renin-V5-6His was removed by limited proteolysis using immobilized TPCK-trypsin to give mature-human renin. Renin enzymatic activity was monitored using a commercially available fluorescence resonance energy transfer (FRET) peptide substrate, RS-1 (Molecular Probes, Eugene, Oreg.) in 50 mM Tris-HCl pH 8.0, 100 mM NaCl, 0.1% Brij-35 and 5% DMSO buffer for 40 mins at 30 degrees celsius in the presence or absence of different concentrations of test compounds. Mature human Renin was present at approximately 200 nM. Inhibitory activity was defined as the percent decrease in renin induced fluorescence at the end of the 40 min incubation compared to vehicle controls and samples lacking enzyme.

% inhibition of renin at 100 μM [%] | Structure (SMILES)
68.8 | CN1C(=N)N[C@](CCC2CCCCC2)(C[C@H]2CCC[C@@H](Nc3cccnc3)C2)C1=O
75.3 | CCC[C@H]1CN(Cc2ccc(CN3C(=N)NC(CCC4CCCCC4)(CC4CCCCC4)C3=O)cc2)C(=O)N1 (stereo partly drawn)
76.9 | CCC[C@H]1CN(Cc2ccc(CN3C(=N)N[C@](CCC4CCCCC4)(CC4CCCCC4)C3=O)cc2)C(=O)N1

Reference: patent US8183252B2, “Heterocyclic aspartyl protease inhibitors” (Schering Corporation, priority 2007, dated 2012)
